Laboratory results from patent EP0444482B1, “Oxetanones” (F. HOFFMANN-LA ROCHE AG, priority 1990, dated 1991).

Key:
Schweinepankreaslipase = target: T1, Schweinepankreaslipase (Sus scrofa, UniProt P00591); assay: Inhibition of pancreatic lipase (titrimetric measurement of oleic acid released from triolein); format: biochemical, Schwein; details: substrate triolein emulsion, pH 8, NaOH consumption over 10 min, 1-3 µg lipase; concentration giving half-maximal inhibition of lipase activity; read-out: IC₅₀ (converted)
T1 sequence (P00591 1-450): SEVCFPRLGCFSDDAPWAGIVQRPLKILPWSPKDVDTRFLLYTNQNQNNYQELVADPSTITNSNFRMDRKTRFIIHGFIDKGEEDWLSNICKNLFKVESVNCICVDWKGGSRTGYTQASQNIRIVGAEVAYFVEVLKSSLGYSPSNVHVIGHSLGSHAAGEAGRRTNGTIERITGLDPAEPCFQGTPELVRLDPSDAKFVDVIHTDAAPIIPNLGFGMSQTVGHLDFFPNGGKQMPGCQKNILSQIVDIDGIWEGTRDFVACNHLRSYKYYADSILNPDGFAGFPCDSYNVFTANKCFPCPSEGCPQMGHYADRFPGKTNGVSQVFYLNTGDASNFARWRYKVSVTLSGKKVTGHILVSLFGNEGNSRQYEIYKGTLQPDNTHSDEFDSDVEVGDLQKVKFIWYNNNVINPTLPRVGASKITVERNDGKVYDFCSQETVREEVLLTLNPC
Protocol: Die Hemmung der Pankreaslipase durch die Oxetanone der Formel I kann experimentell gezeigt werden, indem man die bei der Spaltung von Triolein durch Schweinepankreaslipase freigesetzte Oelsäure titrimetrisch erfasst. Zu einer Emulsion, welche 1 mM Taurodeoxycholat, 9 mM Taurocholat, 0,1 mM Cholesterin, 1 mM Eilezithin, 15 mg/ml BSA, 2 mM Tris-HCl, 100 mM Natriumchlorid, 1 mM Calciumchlorid und das Substrat Triolein enthält, gibt man die in Aethanol oder Dimethylsulfoxid (10% des Emulsionsvolumens) gelöste Verbindung der Formel I und startet die Reaktion durch Zugabe von 1-3 µg Schweinepankreaslipase. Das pH wird während der Reaktion durch Zugabe von Natronlauge bei 8 gehalten. Aus dem während 10 Minuten ermittelten Verbrauch an Natronlauge wird die IC₅₀ berechnet. Die IC₅₀ ist diejenige Konzentration, bei der die Lipaseaktivität halbmaximal gehemmt wird. Die nachfolgende Tabelle enthält die für die Verbindungen der Formel I ermittelten IC₅₀-Werte in µg/ml.

[1] = Acute toxicity after a single oral administration; details: mouse, in vivo, mice, read-out: akute Toxizität
Protocol: Die akute Toxizität (nach einmaliger oraler Verabreichung an Mäusen) beträgt mehr als 5000 mg/kg für die Produkte der Beispiele 3d, 3h, 3i, 3l, 4a und 10a, b, e und f.

Compound | IC50 (Schweinepankreaslipase) [nM] | LD50 [1] [mg/kg]
CCCCCCCCCCC[C@@H](C[C@@H]1OC(=O)[C@H]1CCCCCC)OC(=O)C(CCC)C(N)=O (mixture of isomers) [Beispiel 2d, (S)-1-[[(2S,3S)-3-Hexyl-4-oxo-2-oxetanyl]methyl]-dodecyl-(RS) -2-carbamoylvalerat] | 249 | –
CCCCCCCCCCC[C@@H](C[C@@H]1OC(=O)[C@H]1CCCCCC)OC(=O)C(CC(C)C)C(N)=O (mixture of isomers) [Beispiel 3f, (S)-1-[[(2S,3S)-3-Hexyl-4-oxo-2-oxetanyl]methyl]dodecyl-(RS)-2-carbamoyl-4-methylvalerat] | 167 | –
CCCCCCCCCCC[C@@H](C[C@@H]1OC(=O)[C@H]1CCCCCC)OC(=O)C(C)C(N)=O (mixture of isomers) [Beispiel 3i, (S)-1-[[(2S,3S)-3-Hexyl-4-oxo-2-oxetanyl]methyl]dodecyl-(RS)-2-methylmalonamat] | 926 | > 5000
CCCCCCCCCCC[C@@H](C[C@@H]1OC(=O)[C@H]1CCCCCC)OC(=O)C(CCCC)C(N)=O (mixture of isomers) [Beispiel 3k, (S)-1-[[(2S,3S)-3-Hexyl-4-oxo-2-oxetanyl]methyl]dodecyl-(RS)-2-butylmalonamat] | 242 | –
CCCCCCCCCCCCCCCCC[C@@H](C[C@@H]1OC(=O)[C@H]1CC)OC(=O)C(C(N)=O)C(C)C (single isomer, unassigned) [Beispiel 1a] | 62.8 | –
CCCCCCCCCCCCCCCCC[C@@H](C[C@@H]1OC(=O)[C@H]1CC)OC(=O)C(C(N)=O)C(C)C (single isomer, unassigned) [Beispiel 1b] | 49 | –
CCCCCCCCCCC[C@@H](C[C@@H]1OC(=O)[C@H]1CCCCCC)OC(=O)C(C(N)=O)C(C)C (single isomer, unassigned) [Beispiel 2b] | 131 | –
CCCCC/C=C\C/C=C\CCCCCCC[C@@H](C[C@@H]1OC(=O)[C@H]1CC)OC(=O)C(C(N)=O)C(C)C (single isomer, unassigned) [Beispiel 2g1] | 103 | –
CCCCC/C=C\C/C=C\CCCCCCC[C@@H](C[C@@H]1OC(=O)[C@H]1CC)OC(=O)C(C(N)=O)C(C)C (single isomer, unassigned) [Beispiel 2g2] | 25.7 | –
CCCCCCCCCCC[C@@H](C[C@H]1OC(=O)[C@@H]1Cc1ccccc1)OC(=O)C(C(N)=O)C(C)C (single isomer, unassigned) [Beispiel 7b] | 162 | –
CCCCCCCCCCCCCCCCC[C@@H](C[C@@H]1OC(=O)[C@H]1CC)OC(=O)C(C(N)=O)C(C)(C)C (single isomer, unassigned) [Beispiel 37] | 64.9 | –
CCCCCCCCCCCCCCCCC[C@@H](C[C@@H]1OC(=O)[C@H]1CC)OC(=O)C(CCC)C(N)=O (stereo partly drawn) [Beispiel 2e, (S)-1-[[(2S,3S)-3-Aethyl-4-oxo-2-oxetanyl]-methyl]octadecyl-(RS)-2-carbamoylvalerat] | 100 | –
CCCCCCCCCCCCCCCCC[C@@H](C[C@@H]1OC(=O)[C@H]1CC)OC(=O)C1(C(N)=O)OCCO1 [Beispiel 2f, (S)-1-[[(2S,3S)-3-Aethyl-4-oxo-2-oxetanyl]-methyl]octadecyl-2-carbamoyl-1,3-dioxolan-2-carboxylat] | 894 | –
CCCCCCCCCCC[C@@H](C[C@@H]1OC(=O)[C@H]1CCCCCC)OC(=O)CC(N)=O [Beispiel 3c, 2-Carbamoylessigsäure-(S)-1-[[(2S,3S)-3-hexyl-4-oxo-2-oxetanyl]methyl]dodecylester] | 887 | –
CCCCCCCCCCC[C@@H](C[C@@H]1OC(=O)[C@H]1CCCCCC)OC(=O)C(N)=O [Beispiel 3d, (S)-1-[[(2S,3S)-3-Hexyl-4-oxo-2-oxetanyl]methyl]dodecyloxamat] | 2110 | > 5000
CCCCCCCCCCC[C@@H](C[C@@H]1OC(=O)[C@H]1CCCCCC)OC(=O)CC(=O)NC [Beispiel 3e, (S)-1-[[(2S,3S)-3-Hexyl-4-oxo-2-oxetanyl]methyl]dodecyl -N-methylmalonamat] | 3110 | –
CCCCCCCCCCC[C@@H](C[C@@H]1OC(=O)[C@H]1CCCCCC)OC(=O)C1(C(N)=O)CCCCC1 [Beispiel 3g, (S)-1-[[(2S,3S)-3-Hexyl-4-oxo-2-oxetanyl]methyl]dodecyl-1-carbamoylcydohexancarboxylat] | 579 | –

Compound | IC50 (Schweinepankreaslipase) [nM] | LD50 [1] [mg/kg]
CCCCCCCCCCC[C@@H](C[C@@H]1OC(=O)[C@H]1CCCCCC)OC(=O)C(C)(C)C(N)=O [Beispiel 3h, (S)-1-[[(2S,3S)-3-Hexyl-4-oxo-2-oxetanyl]methyl]dodecyl-2,2-dimethylmalonamat] | 4490 | > 5000
CCCCCCCCCCC[C@@H](C[C@@H]1OC(=O)[C@H]1CCCCCC)OC(=O)C(CC)C(N)=O (stereo partly drawn) [Beispiel 3j, (S)-1-[[(2S,3S)-3-Hexyl-4-oxo-2-oxetanyl]methyl]dodecyl-(RS)-2-äthylmalonamat] | 342 | –
CCCCCCCCCCC[C@@H](C[C@@H]1OC(=O)[C@H]1CCCCCC)OC(=O)C(CC)(CC)C(N)=O [Beispiel 3l, (S)-1-[[(2S,3S)-3-Hexyl-4-oxo-2-oxetanyl]methyl]dodecyl-2,2-diäthylmalonamat] | 1570 | > 5000
CCCCCCCCCCCCCCCCC[C@@H](C[C@@H]1OC(=O)[C@H]1CC)OC(=O)C1(C(N)=O)CCCCC1 [Beispiel 4a, (S)-1-[[(2S,3S)-3-Aethyl-4-oxo-2-oxetanyl]methyl]octadecyl-1-carbamoylcyclohexancarboxylat] | 299 | > 5000
CCCCCCCCCCC[C@@H](CC1OC(=O)C1SCCCCC)OC(=O)C(C(N)=O)C(C)C (stereo partly drawn) [Beispiel 6b, (S)-1-[[(2S,3S oder 2R,3R)-4-Oxo-3-pentylthio-2-oxetanyl]methyl]-dodecyl-[S:R oder R:S(2:1)]-2-isopropylmalonamat] | 112 | –
CCCCCCCCCCCCCCCCC[C@@H](C[C@@H]1OC(=O)[C@H]1CC)OC(=O)C(N)=O [Beispiel 10a, (S)-1-[[(2S,3S)-3-Aethyl-4-oxo-2-oxetanyl]methyl]octadecyloxamat] | 183 | > 5000
CCCCCCCCCCCCCCCCC[C@@H](C[C@@H]1OC(=O)[C@H]1CC)OC(=O)CC(N)=O [Beispiel 10b, (S)-1-[[(2S,3S)-3-Aethyl-4-oxo-2-oxetanyl]methyl]octadecylmalonamat] | 89.8 | > 5000
CCCCCCCCCCCCCCCCC[C@@H](C[C@@H]1OC(=O)[C@H]1CC)OC(=O)CC(=O)NC [Beispiel 10c, (S)-1-[[(2S,3S)-3-Aethyl-4-oxo-2-oxetanyl]methyl]octadecyl-N-methylmalonamat] | 208 | –
CCCCCCCCCCCCCCCCC[C@@H](C[C@@H]1OC(=O)[C@H]1CC)OC(=O)CC(=O)N(C)C [Beispiel 10d, (S)-1-[[(2S,3S)-3-Aethyl-4-oxo-2-oxetanyl]methyl]octadecyl-N,N-dimethylmalonamat] | 948 | –
CCCCCCCCCCCCCCCCC[C@@H](C[C@@H]1OC(=O)[C@H]1CC)OC(=O)C(C)C(N)=O (stereo partly drawn) [Beispiel 10e, (S)-1-[[(2S,3S)-3-Aethyl-4-oxo-2-oxetanyl]methyl]octadecyl-(RS)-2-methylmalonamat] | 56 | > 5000
CCCCCCCCCCCCCCCCC[C@@H](C[C@@H]1OC(=O)[C@H]1CC)OC(=O)CCC(N)=O [Beispiel 10f, (S)-1-[[(2S,3S)-3-Aethyl-4-oxo-2-oxetanyl]methyl]octadecyl-succinamat] | 664 | > 5000
CCCCCCCCCCCCCCCCC[C@@H](C[C@@H]1OC(=O)[C@H]1CC)OC(=O)C1(C(N)=O)CCCC1 [Beispiel 43, (S)-1-[[(2S,3S)-3-Aethyl-4-oxo-2-oxetanyl]methyl]octadecyl-1-carbamoylcyclopentancarboxylat] | 230 | –
CCCCCCCCCCC[C@@H](C[C@@H]1OC(=O)[C@H]1CCCCCC)OC(=O)C(Cc1ccccc1)C(N)=O (stereo partly drawn) [Beispiel 45, (S)-1-[[(2S,3S)-3-Hexyl-4-oxo-2-oxetanyl]methyl]dodecyl-(RS)-2-benzylmalonomat] | 88.7 | –
CCCCCCCCCCC[C@@H](C[C@@H]1OC(=O)[C@H]1CCCCCC)OC(=O)CCSCCC(N)=O [Beispiel 51, (S)-1-[[(2S,3S)-3-Hexyl-4-oxo-2-oxetanyl]methyl]dodecyl-3-[(2-carbamoyläthyl)thio]propionat] | 701 | –
CCCCCCCCCCCCCCCCC[C@@H](C[C@@H]1OC(=O)[C@H]1CC)OC(=O)[C@H]1CCC(=O)N1 [Beispiel 78c, 5-Oxo-D-prolin-(S)-1-[[(2S,3S)-3-äthyl-4-oxo-2-oxetanyl]methyl]octadecyl-ester] | 567 | –
CCCCCCCCCCCCCCCCC[C@@H](C[C@@H]1OC(=O)[C@H]1CC)OC(=O)[C@@H]1CCC(=O)N1 [Beispiel 78d, 5-Oxo-L-prolin-(S)-1-[[(2S,3S)-3-äthyl-4-oxetanyl]methyl]octadecyl-ester] | 103 | –
